Consider eleven molecules from ChEMBL document CHEMBL1201862, “PubChem BioAssay data set” (2004).

SMILES strings stand for the structures.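 Briefly, cells in 96-well plates were exposed to five compound concentrations for 48 h, and endpoints were estimated by linear interpolation. The concentration for 50% growth inhibition is given as GI50.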 Calls of active or inactive are those of the source. No stated cut-off is given here; in the data, active = GI50 up to about 1.1 µM and inactive = higher.

Test systems include OVCAR-3; MCF7; SR; MDA-MB-231; CCRF-CEM; T47D; SK-OV-3; IGROV-1; OVCAR-5; SF-268; PC-3; HOP-92; LOX IMVI; UACC-62; SNB-75; SNB-19; KM12; SK-MEL-5; HL-60; BT-549.
Holding throughout (experiment): growth of human tumour cells (NCI), 48 h

`OCC1C(OCc2ccccc2)C(OCc2ccccc2)C(OCc2ccccc2)CN1Cc1ccccc1` (configuration not stated): the GI50 in the assay on OVCAR-3 was 47.5 µM (inactive); with MCF7, 14.2 µM (inactive); in the assay with SR it was 8.83 µM (inactive); with MDA-MB-231, 21.3 µM (inactive); in the assay on CCRF-CEM it was 28.8 µM (inactive); in the assay on T47D it was 22.6 µM (inactive). The GI50 in the assay on SK-OV-3 is > 100 µM (inactive); with IGROV-1 it was 35.5 µM (inactive); in the assay with OVCAR-5, 37.5 µM (inactive); with SF-268, 65.5 µM (inactive); in the assay with PC-3, 13 µM (inactive); with HOP-92, 9.64 µM (inactive). The GI50 in the assay with LOX IMVI was 31.3 µM (inactive); in the assay on UACC-62 it was > 100 µM (inactive); with SNB-75 it was 13 µM (inactive); in the assay on SNB-19, 96.8 µM (inactive); with KM12 it was 16.8 µM (inactive).

With `NC(=O)C(=CNC(=S)Nc1cccc(C(F)(F)F)c1)C(N)=O`, the GI50 in the assay on OVCAR-3, in the assay with MCF7, with SR, in the assay with MDA-MB-231, in the assay with CCRF-CEM and in the assay on T47D was > 100 µM (inactive) in each case. Further, the GI50 with SK-MEL-5, in the assay on SK-OV-3, in the assay with OVCAR-5, in the assay with SF-268, with PC-3 and in the assay on HOP-92 was > 100 µM (inactive) throughout. Also, the GI50 is > 100 µM (inactive) in the assay with LOX IMVI; > 100 µM (inactive) with UACC-62; 51.9 µM (inactive) in the assay with SNB-75; > 100 µM (inactive) in the assay on SNB-19; > 100 µM (inactive) in the assay on KM12; > 100 µM (inactive) in the assay with HL-60.

Take `COc1cc(C(=O)c2cocc2C(=O)c2ccc3c(c2)OCO3)cc(OC)c1OC`: the GI50 with OVCAR-3 was 0.304 µM (active); in the assay with MCF7, 0.217 µM (active); with SR, 0.611 µM (active); in the assay with MDA-MB-231 it was 2.65 µM (inactive); in the assay with CCRF-CEM, 0.444 µM (active); with SK-MEL-5 it was 0.232 µM (active). For the same molecule, the GI50 with SK-OV-3 was 2.49 µM (inactive); in the assay on IGROV-1, 1.5 µM (inactive); with OVCAR-5, 18.6 µM (inactive); in the assay with SF-268 it was 0.802 µM (active); with PC-3 it was 0.355 µM (active); with HOP-92, 2.69 µM (inactive). Further, the GI50 in the assay on LOX IMVI is 0.483 µM (active); in the assay with UACC-62, 0.311 µM (active); in the assay on SNB-75, 0.336 µM (active); in the assay with SNB-19, 0.933 µM (active); in the assay on KM12, 0.254 µM (active); in the assay with HL-60, 0.0946 µM (active). Besides, the GI50 in the assay on BT-549 was 0.149 µM (active).

For `C=C[C@@]1(O)CCCC[C@@H]1CC(Sc1ccccc1)Sc1ccccc1`, the GI50 in the assay on MCF7 was 16.7 µM (inactive); in the assay with SR, 37.1 µM (inactive); in the assay on MDA-MB-231, 17.1 µM (inactive); in the assay with CCRF-CEM, 30.6 µM (inactive); in the assay with T47D, 11.1 µM (inactive); in the assay with SK-MEL-5, 17.1 µM (inactive). The GI50 with SK-OV-3 is 16.4 µM (inactive); in the assay with IGROV-1, 14.9 µM (inactive); in the assay on OVCAR-5 it was 18.8 µM (inactive); in the assay with SF-268, 15.5 µM (inactive); in the assay on PC-3, 14.3 µM (inactive); in the assay with LOX IMVI, 19.6 µM (inactive). The GI50 is 8.59 µM (inactive) in the assay with UACC-62; 13.7 µM (inactive) in the assay on SNB-75; 18 µM (inactive) in the assay on SNB-19; 16.9 µM (inactive) in the assay with KM12; 49.8 µM (inactive) in the assay on HL-60.

On to `COc1ccc(CCc2cc(OC)c(OC)c(OC)c2)cc1`, for which the GI50 is 0.02 µM (active) in the assay on OVCAR-3; 0.0283 µM (active) in the assay with MCF7; < 0.01 µM (active) in the assay with SR; 0.296 µM (active) in the assay on MDA-MB-231; 0.0204 µM (active) in the assay on CCRF-CEM; 0.0212 µM (active) with SK-MEL-5. The GI50 in the assay with SK-OV-3 was 0.0236 µM (active); with IGROV-1 it was 0.0612 µM (active); with OVCAR-5, 0.456 µM (active); with SF-268 it was 0.423 µM (active); with PC-3, 0.043 µM (active); in the assay with HOP-92 it was 0.805 µM (active). In addition, the GI50 in the assay with LOX IMVI is 0.0372 µM (active); in the assay with UACC-62, 0.0165 µM (active); with SNB-75 it was 0.0395 µM (active); in the assay with SNB-19, 0.111 µM (active); with KM12 it was 0.0118 µM (active); in the assay on HL-60, 0.014 µM (active). Further, the GI50 in the assay with BT-549 was 2.32 µM (inactive).

In the case of `CCc1cccc2c3c([nH]c12)-c1ccccc1NC(=O)C3`, the GI50 in the assay on OVCAR-3 is > 100 µM (inactive); in the assay on MCF7 it was 18.3 µM (inactive); with MDA-MB-231 it was 5.66 µM (inactive); in the assay on CCRF-CEM, > 100 µM (inactive); with T47D, 3.66 µM (inactive); in the assay on SK-MEL-5 it was > 100 µM (inactive). The GI50 with SK-OV-3 was > 100 µM (inactive); in the assay on IGROV-1, > 100 µM (inactive); in the assay on OVCAR-5 it was > 100 µM (inactive); in the assay on SF-268, 48.2 µM (inactive); in the assay on HOP-92 it was > 100 µM (inactive); in the assay with LOX IMVI, 72.9 µM (inactive). Further, the GI50 is 65.9 µM (inactive) in the assay with UACC-62; 13.2 µM (inactive) in the assay on SNB-75; > 100 µM (inactive) in the assay with SNB-19; 7.06 µM (inactive) in the assay on KM12; 92.3 µM (inactive) in the assay on HL-60; > 100 µM (inactive) in the assay with BT-549.

With `C[n+]1cn(CC(=O)c2ccccc2)c(C(N)=O)c1N`, the GI50 in the assay with OVCAR-3 is > 100 µM (inactive); with SR it was > 100 µM (inactive); in the assay on CCRF-CEM, > 100 µM (inactive); in the assay on SK-MEL-5, 33 µM (inactive); with SK-OV-3, > 100 µM (inactive); in the assay with IGROV-1, > 100 µM (inactive). Moreover, the GI50 in the assay on OVCAR-5, in the assay on SF-268, in the assay with HOP-92, in the assay with LOX IMVI, with UACC-62 and with SNB-75 was > 100 µM (inactive) each time. For the same molecule, the GI50 is > 100 µM (inactive) in the assay on SNB-19, > 100 µM (inactive) in the assay on KM12 and 0.337 µM (active) in the assay on HL-60.

For `CC(=O)/C(=C/NC(=S)Nc1ccccc1)C(=O)Nc1ccccc1C`, the GI50 in the assay with OVCAR-3 was 61.1 µM (inactive); in the assay with MCF7, > 100 µM (inactive); in the assay on SR it was > 100 µM (inactive); in the assay with MDA-MB-231, 29.4 µM (inactive); with CCRF-CEM, > 100 µM (inactive); in the assay with T47D it was 52.4 µM (inactive). Besides, the GI50 with SK-MEL-5 was 61.2 µM (inactive); with SK-OV-3, > 100 µM (inactive); in the assay with IGROV-1, > 100 µM (inactive); in the assay with OVCAR-5, > 100 µM (inactive); in the assay on SF-268, 91 µM (inactive); in the assay with PC-3, > 100 µM (inactive). Also, the GI50 in the assay on HOP-92 was 99.1 µM (inactive); with LOX IMVI, > 100 µM (inactive); in the assay on UACC-62 it was > 100 µM (inactive); in the assay on SNB-75, 49.9 µM (inactive); in the assay on SNB-19, > 100 µM (inactive); with KM12, > 100 µM (inactive). For the same molecule, in the assay on HL-60, the GI50 was 84.9 µM (inactive).

As for `Cc1ccc2c(O)cc(-c3ccc4ccccc4c3)nc2n1`, the GI50 in the assay on MCF7 was 2.28 µM (inactive); in the assay on SR, 1.83 µM (inactive); in the assay with MDA-MB-231, 14.3 µM (inactive); with CCRF-CEM, 3.66 µM (inactive); in the assay with T47D, 7 µM (inactive); in the assay with SK-OV-3, 3.37 µM (inactive). Moreover, the GI50 in the assay with IGROV-1 was 2.6 µM (inactive); in the assay on OVCAR-5, 19.3 µM (inactive); in the assay with SF-268, 6.9 µM (inactive); in the assay with HOP-92, 1.5 µM (inactive); with LOX IMVI, 5.14 µM (inactive); with UACC-62 it was 3.64 µM (inactive). The GI50 was 2.75 µM (inactive) in the assay with SNB-75; 9.48 µM (inactive) in the assay with SNB-19; 3.21 µM (inactive) with KM12; 1.82 µM (inactive) in the assay on HL-60; 27.4 µM (inactive) with BT-549.

For `CCOP(=O)(OCC)/C(C#N)=C/c1coc2cc(C)cc(C)c2c1=O`, the GI50 in the assay with OVCAR-3, with MCF7, in the assay on SR, with MDA-MB-231, in the assay with CCRF-CEM and with SK-MEL-5 was > 100 µM (inactive) each time. Also, the GI50 in the assay on SK-OV-3, with IGROV-1, in the assay with OVCAR-5, in the assay with SF-268, in the assay on PC-3 and in the assay with HOP-92 was > 100 µM (inactive) in each case. For the same molecule, the GI50 was > 100 µM (inactive) in the assay on LOX IMVI; 67 µM (inactive) with UACC-62; > 100 µM (inactive) with SNB-75; > 100 µM (inactive) in the assay with SNB-19; > 100 µM (inactive) with KM12; > 100 µM (inactive) in the assay with HL-60. In the assay with BT-549, the GI50 is > 100 µM (inactive).

Consider `O=c1oc2ccccc2cc1-c1nnc(-c2ccccc2)s1`, for which the GI50 in the assay with OVCAR-3 was 14.5 µM (inactive); with MCF7 it was 7.67 µM (inactive); with SR it was 0.971 µM (active); with MDA-MB-231, 19.1 µM (inactive); with CCRF-CEM it was 40.3 µM (inactive); in the assay on SK-MEL-5, > 71.3 µM (inactive). The GI50 with SK-OV-3 is 48.6 µM (inactive); with IGROV-1, 22.4 µM (inactive); with OVCAR-5, > 100 µM (inactive); in the assay with SF-268 it was > 57.9 µM (inactive); in the assay on PC-3, > 76.6 µM (inactive); in the assay on HOP-92, > 100 µM (inactive). Further, the GI50 with LOX IMVI is > 72.8 µM (inactive); in the assay on UACC-62, > 100 µM (inactive); in the assay with SNB-75, 15.5 µM (inactive); in the assay with SNB-19, 41.6 µM (inactive); in the assay with KM12, 4.61 µM (inactive); with HL-60 it was 0.0279 µM (active). Besides, the GI50 with BT-549 is > 68.7 µM (inactive).
